Laboratory results as given in patent publication US20240109853A1 (Shanghai Yao Yuan Biotechnology Co., Ltd., priority 2020, published 2024).

Assays:
ALPK1 = ALPK1 (Homo sapiens (Human), UniProt Q96QP1); test: ALPK1 in vitro kinase assay (HTRF of TIFA phosphorylation); type: biochemical
[1] = system: ALPK1-dependent NFκB reporter gene activation in HEK293 cells stably expressing an NF-kB reporter (G9 cells); test: NFκB gene reporter alkaline phosphatase assay; type: cell-based; conditions: Homo sapiens, HEK293; read-out: NFkB assay IC50
Method in brief: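 HEK293 G9 cells stably carrying an NF-kB alkaline phosphatase reporter were seeded at 10,000 cells/well in Freestyle 293 medium and attached overnight. They were pretreated with serially diluted compound for 30 min, then stimulated with D-glycero-D-manno-6-fluoro-heptose-1β-S-ADP. Reporter phosphatase was read with pNPP; IC50 from logistic fit.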

Sequence of ALPK1 (Q96QP1 whole entry): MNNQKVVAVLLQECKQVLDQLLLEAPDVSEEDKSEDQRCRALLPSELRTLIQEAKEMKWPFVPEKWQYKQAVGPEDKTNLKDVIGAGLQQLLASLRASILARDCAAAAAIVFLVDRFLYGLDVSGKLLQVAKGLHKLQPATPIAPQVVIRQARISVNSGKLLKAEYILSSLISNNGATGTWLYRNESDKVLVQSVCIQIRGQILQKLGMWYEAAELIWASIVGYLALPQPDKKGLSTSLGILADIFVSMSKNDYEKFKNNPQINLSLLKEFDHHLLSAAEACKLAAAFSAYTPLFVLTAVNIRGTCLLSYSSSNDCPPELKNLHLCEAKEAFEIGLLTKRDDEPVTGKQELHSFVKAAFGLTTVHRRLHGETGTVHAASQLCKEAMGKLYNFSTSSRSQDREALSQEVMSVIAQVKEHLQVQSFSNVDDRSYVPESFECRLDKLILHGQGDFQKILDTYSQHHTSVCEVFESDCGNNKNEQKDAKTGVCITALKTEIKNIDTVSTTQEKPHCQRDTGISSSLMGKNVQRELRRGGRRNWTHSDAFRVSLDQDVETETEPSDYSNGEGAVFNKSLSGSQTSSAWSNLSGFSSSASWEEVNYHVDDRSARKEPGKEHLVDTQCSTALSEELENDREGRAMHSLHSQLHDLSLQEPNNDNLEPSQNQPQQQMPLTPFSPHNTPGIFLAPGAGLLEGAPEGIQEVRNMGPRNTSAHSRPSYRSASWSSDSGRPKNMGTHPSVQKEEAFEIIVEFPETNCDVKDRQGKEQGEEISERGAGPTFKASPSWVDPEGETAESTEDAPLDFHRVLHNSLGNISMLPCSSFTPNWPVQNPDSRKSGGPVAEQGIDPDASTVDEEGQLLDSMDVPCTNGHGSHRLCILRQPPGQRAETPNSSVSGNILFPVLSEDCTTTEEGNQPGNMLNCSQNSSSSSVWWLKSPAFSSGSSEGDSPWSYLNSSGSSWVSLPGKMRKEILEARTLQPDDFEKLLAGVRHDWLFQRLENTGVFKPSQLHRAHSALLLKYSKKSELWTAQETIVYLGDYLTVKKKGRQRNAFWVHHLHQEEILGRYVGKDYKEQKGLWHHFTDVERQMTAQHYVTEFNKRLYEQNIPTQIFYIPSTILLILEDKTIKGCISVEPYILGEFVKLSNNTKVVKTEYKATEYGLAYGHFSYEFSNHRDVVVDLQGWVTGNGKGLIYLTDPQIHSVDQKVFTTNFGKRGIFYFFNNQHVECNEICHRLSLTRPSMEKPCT

Compound	IC50 (ALPK1) [µM]	IC50 [1] [µM]
CN1CCC(NC(=O)C2CCC(CNC(=O)Nc3nc(C(C)(C)c4ccc(Br)cc4)cs3)CC2)CC1 (centres unmarked) [Example A100, 4-((3-(4-(2-(4-bromophenyl)propan-2-yl)thiazol-2-yl)ureido)methyl)-N-(1-methylpiperidin-4-yl)cyclohexane-1-carboxamide]	0.072	1.37
CC(C)(c1ccc(Br)cc1)c1csc(NC(=O)NC(CO)c2ccc(N3CCNCC3)cc2)n1 (centres unmarked) [Example A101, 1-(4-(2-(4-bromophenyl)propan-2-yl)thiazol-2-yl)-3-(2-hydroxy-1-(4-(piperazin-1-yl)phenyl)ethyl)urea]	0.05	1.65
CC(C)(c1ccc(Br)cc1)c1csc(NC(=O)NCCCN2CCNCC2)n1 [Example A102, 1-(4-(2-(4-bromophenyl)propan-2-yl)thiazol-2-yl)-3-(3-(piperazin-1-yl)propyl)urea]	0.09	0.71
CC(C)(c1ccc(Br)cc1)c1csc(NC(=O)NCc2cnc(N3CCN(CCO)CC3)nc2)n1 [Example A103, 1-(4-(2-(4-bromophenyl)propan-2-yl)thiazol-2-yl)-3-((2-(4-(2-hydroxyethyl)piperazin-1-yl)pyrimidin-5-yl)methyl)urea]	0.097	6.2
COc1ccc(C(C)(C)c2csc(NC(=O)NCc3cncnc3)n2)cc1 [Example A104, 1-(4-(2-(4-methoxyphenyl)propan-2-yl)thiazol-2-yl)-3-(pyrimidin-5-ylmethyl)urea]	0.223	1.69
COc1ccc(C(C)(C)c2csc(NC(=O)NCc3cnc(NCCO)c(F)c3)n2)cc1 [Example A105, 1-((5-fluoro-6-((2-hydroxyethyl)amino)pyri-din-3-yl)methyl)-3-(4-(2-(4-methoxyphenyl)propan-2-yl)thiazol-2-yl)urea]	0.144	1.02
CN(C)C1CCN(c2ccc(CNC(=O)Nc3nc(C(C)(C)c4ccc(Br)cc4)cs3)cn2)C1 (centres unmarked) [Example A106, 1-(4-(2-(4-bromophenyl)propan-2-yl)thiazol-2-yl)-3-((6-(3-(dimethylamino)pyrrolidin-1-yl)pyridin-3-yl)methyl)urea]	0.048	6.72
CC(C)(c1ccc(Br)cc1)c1csc(NC(=O)NCc2ccc(NCCO)cc2)n1 [Example A108, 1-(4-(2-(4-bromophenyl)propan-2-yl)thiazol-2-yl)-3-(4-((2-hydroxyethyl)amino)ben-zyl)urea]	0.244	0.82
COCCNC(=O)Nc1nc(C(C)(C)c2ccc(OC)cc2)cs1 [Example A110, 1-(2-methoxyethyl)-3-(4-(2-(4-methoxyphenyl)propan-2-yl)thiazol-2-yl)urea]	0.193	0.94
COCCCNC(=O)Nc1nc(C(C)(C)c2ccc(OC)cc2)cs1 [Example A111, 1-(4-(2-(4-methoxyphenyl)propan-2-yl)thiazol-2-yl)-3-(3-methoxypropyl)urea]	0.127	1.24
CCCN1CCC(NC(=O)c2ccc(CNC(=O)Nc3nc(C(C)(C)c4ccc(OC)cc4)cs3)cn2)CC1 [Example A115, 5-((3-(4-(2-(4-methoxyphenyl)propan-2-yl)thiazol-2-yl)ureido)methyl)-N-(1-propylpiperidin-4-yl)picolinamide]	0.019	0.83
CCCN1CCN(c2ccc(CNC(=O)Nc3nc(C(C)(C)c4ccc(OC)cc4)cs3)cc2C(N)=O)CC1 [Example A116, 5-((3-(4-(2-(4-methoxyphenyl)propan-2-yl)thiazol-2-yl)ureido)methyl)-2-(4-propylpiperazin-1-yl)benzamide]	0.072	0.72
CN1CCN(Cc2c(F)cc(CNC(=O)Nc3nc(C(C)(C)c4ccc(Br)cc4)cs3)cc2F)CC1 [Example A117, 1-(4-(2-(4-bromophenyl)propan-2-yl)thiazol-2-yl)-3-(3,5-difluoro-4-((4-methylpiperazin-1-yl)methyl)benzyl)urea]	0.067	5.03
CC(NC(=O)Nc1nc(C(C)(C)c2ccc(Br)cc2)cs1)c1ccc(CN2CCN(C)CC2)cc1 (centres unmarked) [Example A118, 1-(4-(2-(4-bromophenyl)propan-2-yl)thiazol-2-yl)-3-(1-(4-((4-methylpiperazin-1-yl)methyl)phenyl)ethyl) urea]	0.227	4.38
CC(C)(c1ccc(Br)cc1)c1csc(NC(=O)NCc2cnc(NCCO)nc2)n1 [Example A119, 1-(4-(2-(4-bromophenyl)propan-2-yl)thiazol-2-yl)-3-((2-((2-hydroxyethyl)amino)pyri-midin-5-yl)methyl)urea]	0.036	4.43
COc1ccc(C(C)(C)c2csc(NC(=O)NCc3ccc(C(=O)NC4CCN(C)CC4)nc3)n2)cc1 [Example A120, 5-((3-(4-(2-(4-methoxyphenyl)propan-2-yl)thiazol-2-yl)ureido)methyl)-N-(1-methylpiperidin-4-yl)picolinamide]	0.053	0.99
COc1ccc(C(C)(C)c2csc(NC(=O)NCc3cnc(N4CCNC(=O)C4)c(F)c3)n2)cc1 [Example A121, 1-((5-fluoro-6-(3-oxopiperaizn-1-yl)pyridin-3-yl)methyl)-3-(4-(2-(4-methoxyphenyl)propan-2-yl)thiazol-2-yl)urea]	0.209	2.02

Compound	IC50 (ALPK1) [µM]	IC50 [1] [µM]
COc1ccc(C(C)(C)c2csc(NC(=O)NC3CCC(O)CC3)n2)cc1 (centres unmarked) [Example A122, 1-(4-hydroxycyclohexyl)-3-(4-(2-(4-methoxyphenyl)propan-2-yl)thiazol-2-yl)urea]	0.219	1.7
COc1ccc(C(C)(C)c2csc(NC(=O)NC3CCCC(O)C3)n2)cc1 (centres unmarked) [Example A123, 1-(3-hydroxycyclohexyl)-3-(4-(2-(4-methoxyphenyl)propan-2-yl)thiazol-2-yl)urea]	0.354	2.4
COc1ccc(C(C)(C)c2csc(NC(=O)NCCc3ccncc3)n2)cc1 [Example A124, 1-(4-(2-(4-methoxyphenyl)propan-2-yl)thiazol-2-yl)-3-(2-(pyridin-4-yl)ethyl)urea]	0.165	1.05
CC(C)NC(=O)Nc1nc(C(C)(C)c2ccc(Br)cc2)cs1 [Example A125, 1-(4-(2-(4-bromophenyl)propan-2-yl)thiazol-2-yl)-3-isopropylurea]	0.028	2.8
CC(C)(c1ccc(Br)cc1)c1csc(NC(=O)NCCCO)n1 [Example A126, 1-(4-(2-(4-bromophenyl)propan-2-yl)thiazol-2-yl)-3-(3-hydroxypropyl)urea]	0.088	2.96
CC(C)(c1ccc(Br)cc1)c1csc(NC(=O)NCCCN2CCOCC2)n1 [Example A127, 1-(4-(2-(4-bromophenyl)propan-2-yl)thiazol-2-yl)-3-(3-morpholinopropyl)urea]	0.113	0.94
COc1ccc(C(C)(C)c2csc(NC(=O)NCCCCO)n2)cc1 [Example A128, 1-(4-hydroxybutyl)-3-(4-(2-(4-methoxyphenyl)propan-2-yl)thiazol-2-yl)urea]	0.146	0.53
CC(C)(c1ccc(Br)cc1)c1csc(NC(=O)NCCCN2CCC(O)C2)n1 (centres unmarked) [Example A129, 1-(4-(2-(4-bromophenyl)propan-2-yl)thiazol-2-yl)-3-(3-(3-hydroxypyrrolidin-1-yl)propyl)urea]	0.04	0.51
CC(C)(c1ccc(Br)cc1)c1csc(NC(=O)NCCCS(C)(=O)=O)n1 [Example A130, 1-(4-(2-(4-bromophenyl)propan-2-yl)thiazol-2-yl)-3-(3-(methylsulfonyl)propyl) urea]	0.293	1.1
CC(C)(c1ccc(Br)cc1)c1csc(NC(=O)NCCS(N)(=O)=O)n1 [Example A131, 2-(3-(4-(2-(4-bromophenyl)propan-2-yl)thiazol-2-yl)ureido)ethanesulfona-mide]	0.219	0.94
CC(C)(c1ccc(Br)cc1)c1csc(NC(=O)NCCCS(N)(=O)=O)n1 [Example A132, 3-(3-(4-(2-(4-bromophenyl)propan-2-yl)thiazol-2-yl)ureido)propane-1-sulfonamide]	0.08	4.56
COc1ccc(C(C)(C)c2csc(NC(=O)NCCCO)n2)cc1 [Example A133, 1-(3-hydroxypropyl)-3-(4-(2-(4-methoxyphenyl)propan-2-yl)thiazol-2-yl)urea]	0.057	0.6
COc1ccc(C(C)(C)c2csc(NC(=O)NCCCN3CCOCC3)n2)cc1 [Example A134, 1-(4-(2-(4-methoxyphenyl)propan-2-yl)thiazol-2-yl)-3-(3-morpholinopropyl)urea]	0.152	5.11
COc1ccc(C(C)(C)c2csc(NC(=O)NCCCN3CCC(O)C3)n2)cc1 (centres unmarked) [Example A135, 1-(3-(3-hydroxypyrrolidin-1-yl)propyl)-3-(4-(2-(4-methoxyphenyl)propan-2-yl)thiazol-2-yl)urea]	0.112	1.24
COc1ccc(C(C)(C)c2csc(NC(=O)NCCCS(C)(=O)=O)n2)cc1 [Example A136, 1-(4-(2-(4-methoxyphenyl)propan-2-yl)thiazol-2-yl)-3-(3-(methylsulfonyl)propyl) urea]	0.209	0.64
COc1ccc(C(C)(C)c2csc(NC(=O)NCCS(N)(=O)=O)n2)cc1 [Example A137, 2-(3-(4-(2-(4-methoxyphenyl)propan-2-yl)thiazol-2-yl)ureido)ethanesulfona-mide]	0.042	1.96
COc1ccc(C(C)(C)c2csc(NC(=O)NCCCS(N)(=O)=O)n2)cc1 [Example A138, 3-(3-(4-(2-(4-methoxyphenyl)propan-2-yl)thiazol-2-yl)ureido)propane-1-sulfonamide]	0.097	2.38
